Source: patent US8178678B2, “Bis-quaternary ammonium salts and methods for modulating neuronal nicotinic acetylcholine receptors” (University of Kentucky Research Foundation, priority 2006, dated 2012)

Assays:
[1] = target: T1, Rat Striatal Nicotinic Receptors ([^3H]NIC binding sites; α4β2) (Rattus norvegicus, UniProt P09483+P12390); assay: Inhibition of [^3H]NIC binding; details: 1 h; 100 nM analog; 3 nM [^3H]NIC; nonspecific 10 μM cytisine; rat brain membranes
T1 construct: Whole brain, excluding cortex and cerebellum, was homogenized in 20 vol of ice-cold buffer; from tissue; host or cells: rat brain membranes (whole brain excluding cortex and cerebellum)
T1 sequence (P09483 31-630): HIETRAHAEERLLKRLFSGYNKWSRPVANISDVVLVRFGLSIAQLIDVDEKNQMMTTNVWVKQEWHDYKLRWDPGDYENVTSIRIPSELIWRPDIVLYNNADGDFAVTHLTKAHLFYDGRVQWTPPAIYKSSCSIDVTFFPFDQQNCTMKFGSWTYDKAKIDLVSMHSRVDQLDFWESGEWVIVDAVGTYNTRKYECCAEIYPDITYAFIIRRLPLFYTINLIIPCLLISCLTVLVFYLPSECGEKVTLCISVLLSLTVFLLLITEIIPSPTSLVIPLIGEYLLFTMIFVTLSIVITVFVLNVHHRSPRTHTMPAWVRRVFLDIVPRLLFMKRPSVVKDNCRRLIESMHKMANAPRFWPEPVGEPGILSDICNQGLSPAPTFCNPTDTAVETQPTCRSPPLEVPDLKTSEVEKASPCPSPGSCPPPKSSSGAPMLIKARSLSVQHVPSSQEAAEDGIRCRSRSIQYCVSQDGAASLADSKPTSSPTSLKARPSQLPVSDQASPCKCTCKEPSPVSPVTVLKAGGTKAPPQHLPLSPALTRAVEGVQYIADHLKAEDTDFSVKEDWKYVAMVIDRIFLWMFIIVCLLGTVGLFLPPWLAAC
T1 sequence (P12390 25-500): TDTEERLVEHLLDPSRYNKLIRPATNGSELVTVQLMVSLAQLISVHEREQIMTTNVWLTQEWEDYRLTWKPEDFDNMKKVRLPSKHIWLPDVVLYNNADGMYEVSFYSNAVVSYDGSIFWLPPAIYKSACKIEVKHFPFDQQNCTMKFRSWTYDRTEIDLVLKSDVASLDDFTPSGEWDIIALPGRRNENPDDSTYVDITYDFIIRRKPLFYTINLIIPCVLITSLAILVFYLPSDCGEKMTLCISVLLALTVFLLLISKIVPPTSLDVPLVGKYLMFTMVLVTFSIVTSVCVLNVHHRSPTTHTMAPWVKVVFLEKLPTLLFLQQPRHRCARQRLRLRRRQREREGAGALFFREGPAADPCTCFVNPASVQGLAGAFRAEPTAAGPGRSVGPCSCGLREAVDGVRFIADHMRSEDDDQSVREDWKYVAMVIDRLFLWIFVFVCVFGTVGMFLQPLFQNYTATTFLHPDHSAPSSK
Experimental: (§1) Homogenate was centrifuged (25,000 g, 15 min, 4° C). Pellets were resuspended in 20 vol buffer and incubated at 37° C., for 10 min, cooled to 4° C. and centrifuged (25,000 g, 15 min, 4° C.). Pellets were resuspended and centrifuged using the same conditions. […] Upon use, final pellets were resuspended in 20 vol assay buffer. Samples (250 μl) contained 100-140 μg of membrane protein, 3 nM [^3H]-S-nicotine or 3 nM [^3H]-methyllycaconitine (MLA), and bis-quaternary ammonium analog (100 nM) in assay buffer containing 50 mM Tris. Control was in the absence of analog. In [^3H]-S-nicotine and [^3H]-methyllycaconitine binding assays, nonspecific binding was determined in the presence of 10 μM cytisine and 10 μM S-nicotine, respectively. Incubations proceeded for 60 min at room temperature using 96-well plates and were terminated by harvesting on Unifilter-96 GF/B filter plates presoaked in 0.5% polyethylenimine, using a Packard FilterMate harvester. After washing 5 times with 350 μl ice-cold assay buffer, filter plates were dried (60 min, 4° C.), bottom-sealed, and filled with Packard's MicroScint 20 cocktail (40 μl/well). After 60 min, filter plates were top-sealed, and radioactivity determined using a Packard TopCount. Protein concentrations were determined using the Bradford dye-binding procedure bovine serum albumin as the standard.
Specific binding in the [^3H]NIC binding assay is calculated as the difference between the total binding of 3 nM [^3H]NIC and nonspecific binding in the presence of 10 μM cold cytisine. […] Analog-induced inhibition of S-nicotine-evoked [^3H]DA release is calculated as a percent of that in the absence of the bis-quaternary ammonium analog.

[2] = target: T2, Rat Striatal Nicotinic Receptors ([^3H]MLA binding sites; α7) (Rattus norvegicus, UniProt Q05941); assay: Inhibition of [^3H]MLA (methyllycaconitine) binding; details: 100 nM analog; [^3H]MLA; nonspecific S-nicotine; rat brain membranes; read-out: [^3H]MLA binding, % inhibition
T2 construct: Whole brain, excluding cortex and cerebellum, was homogenized in 20 vol of ice-cold buffer; from tissue; host or cells: rat brain membranes (whole brain excluding cortex and cerebellum)
T2 sequence (Q05941 23-502): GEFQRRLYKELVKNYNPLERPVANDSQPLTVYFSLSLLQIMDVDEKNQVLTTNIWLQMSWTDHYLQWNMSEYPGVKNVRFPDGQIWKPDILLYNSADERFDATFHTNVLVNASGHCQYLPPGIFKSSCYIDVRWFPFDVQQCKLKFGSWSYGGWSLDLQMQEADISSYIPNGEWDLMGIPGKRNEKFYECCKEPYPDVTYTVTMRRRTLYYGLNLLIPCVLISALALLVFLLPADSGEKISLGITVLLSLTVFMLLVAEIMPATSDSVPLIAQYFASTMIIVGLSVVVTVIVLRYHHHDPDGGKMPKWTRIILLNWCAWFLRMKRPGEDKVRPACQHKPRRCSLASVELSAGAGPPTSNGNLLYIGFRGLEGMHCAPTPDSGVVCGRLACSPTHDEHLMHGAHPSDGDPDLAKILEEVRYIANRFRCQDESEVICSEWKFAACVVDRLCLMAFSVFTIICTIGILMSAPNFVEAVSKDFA
Experimental: as §1, with “standard. […]” for “standard.”

| SMILES | inhibition at 0.1 µM [1] [%] | inhibition at 0.1 µM [2] [%] |
| --- | --- | --- |
| Cc1cccc[n+]1CCOCCOCCOCC[n+]1ccccc1C [Example 81, N,N′-{2,2′-[oxybis-(2,1-ethandiyloxy)]bis-ethyl}-bis(2-methylpyridinium)dichloride] | 8.5 | 17 |
| Cc1cc[n+](CCCc2ccc(-c3ccc(CCC[n+]4ccc(C)cc4C)cc3)cc2)c(C)c1 [Example 73, N,N′-[(1,1′-biphenyl)-4,4′-di-(3-propanyl)]-bis-(2,4dimethylpyridinium)dibromide] | 3 | 0.6 |
| Cc1cc[n+](CCCCc2ccc(CCCC[n+]3ccc(C)cc3C)cc2)c(C)c1 [Example 18, N,N′-[1,4-phenylenedi-(4-butanyl)]-bis-(2,4-dimethylpyridinium)dibromide] | 0 | 0 |
| Cc1cccc[n+]1CCCc1ccc(-c2ccc(CCC[n+]3ccccc3C)cc2)cc1 [Example 79, N,N′-[(1,1′-biphenyl)-4,4′-di-(3-propanyl)]-bis-(2-methylpyridinium)dibromide] | 0 | 0 |
| c1c[n+](CCOCCOCCOCC[n+]2ccc3c(c2)CCCC3)cc2c1CCCC2 [Example 85, N,N′-{2,2′-[oxybis-(2,1-ethandiyloxy)]bis-ethyl}-bis(5,6,7,8-tetrahydroisoquinolinium)dichloride] | 6 | 16 |
| Cc1cc[n+](CCCc2ccc(-c3ccc(CCC[n+]4ccc(C)cc4)cc3)cc2)cc1 [Example 77, N,N′-[(1,1′-biphenyl)-4,4′-di-(3-propanyl)]-bis-(4-methylpyridinium)dibromide] | 0 | 0 |
| c1cc2c([n+](CCOCCOCCOCC[n+]3cccc4c3CCCC4)c1)CCCC2 [Example 84, N,N′-{2,2′-[oxybis-(2,1-ethandiyloxy)]bis-ethyl}-bis(5,6,7,8-tetrahydroquinolinium)dichloride] | 0 | 4.7 |
| Cc1cc[n+](CCCCc2ccc(CCCC[n+]3ccc(C)c(C)c3)cc2)cc1C [Example 19, N,N′-[1,4-phenylenedi-(4-butanyl)]-bis-(3,4-dimethylpyridinium)dibromide] | 0 | 0 |
| OCc1ccc[n+](CCOCCOCCOCC[n+]2cccc(CO)c2)c1 [Example 87, N,N′-{2,2′-[oxybis-(2,1-ethandiyloxy)]bis-ethyl}-bis-(3-hydroxymethylpyridinium)dichloride] | 8.2 | 11 |
| OCCCc1ccc[n+](CCCc2ccc(-c3ccc(CCC[n+]4cccc(CCCO)c4)cc3)cc2)c1 [Example 74, N,N′-[(1,1′-biphenyl)-4,4′-di-(3-propanyl)]-bis-[3-(3-hydroxy-propyl)-pyridinium]dibromide] | 2 | 5.8 |
| Cc1cc[n+](CCOCCOCCOCC[n+]2ccc(C)cc2C)c(C)c1 [Example 88, N,N′-{2,2′-[oxybis-(2,1-ethandiyloxy)]bis-ethyl}-bis-(2,4-dimethylpyridinium)dichloride] | 0 | 2.9 |
| OCCCc1ccc[n+](CCOCCOCCOCC[n+]2cccc(CCCO)c2)c1 [Example 86, N,N′-{2,2′-[oxybis-(2,1-ethandiyloxy)]bis-ethyl}-bis-[3-(3-hydroxypropyl)-pyridinium]dichloride] | 8.2 | 8.5 |
| Cc1cc[n+](CC#Cc2ccc(-c3ccc(C#CC[n+]4ccc(C)c(C)c4)cc3)cc2)cc1C [Example 104, N,N′-[(1,1′-biphenyl)-4,4′-di-(1-propyn-3-yl)]-bis-(3,4-dimethylpyridinium)dibromide] | 19 | 16 |
| Cc1cc(C)c[n+](CCCC/C=C\C=C/CCCC[n+]2cc(C)cc(C)c2)c1 [Example 9, cis-cis-N,N′-(dodeca-5,7-diene-1,12-diyl)-bis-(3,5-dimethyl-pyridinium)dibromide] | 0 | 0 |
| Cc1cc[n+](CCCC/C=C\C=C/CCCC[n+]2ccc(C)cc2C)c(C)c1 [Example 7, cis-cis-N,N′-(dodeca-5,7-diene-1,12-diyl)-bis-(2,4-dimethyl-pyridinium)dibromide] | 1 | 6 |
| Cc1cc[n+](CCCC/C=C\C=C/CCCC[n+]2ccc(C)c(C)c2)cc1C [Example 8, cis-cis-N,N′-(dodeca-5,7-diene-1,12-diyl)-bis-(3,4-dimethyl-pyridinium)dibromide] | 0 | 0 |
| Cc1cc(C)c[n+](CCOCCOCCOCC[n+]2cc(C)cc(C)c2)c1 [Example 90, N,N′-{2,2′-[oxybis-(2,1-ethandiyloxy)]bis-ethyl}-bis-(3,5-dimethylpyridinium)dichloride] | 10 | 5 |
| Cc1cc[n+](CC#Cc2ccc(-c3ccc(C#CC[n+]4ccc(C)cc4)cc3)cc2)cc1 [Example 103, N,N′-[(1,1′-biphenyl)-4,4′-di-(1-propyn-3-yl)]-bis-(4-methylpyridinium)dibromide] | 9.6 | 12 |
| Cc1cc(C)c[n+](CCCc2ccc(-c3ccc(CCC[n+]4cc(C)cc(C)c4)cc3)cc2)c1 [Example 71, N,N′-[(1,1′-biphenyl)-4,4′-di-(3-propanyl)]-bis-(3,5-dimethylpyridinium)dibromide] | 1.6 | 3.6 |
| CN1CCC[C@H]1c1ccc[n+](CCOCCOCCOCC[n+]2cccc([C@@H]3CCCN3C)c2)c1 [Example 80, N,N′-{2,2′-[oxybis-(2,1-ethandiyloxy)]bis-ethyl}-bis-[3-(2′-S-1-methyl-pyrrolidin-2-yl)-pyridinium]dichloride] | 7.2 | 13 |
| c1cc2c([n+](CCCc3ccc(-c4ccc(CCC[n+]5cccc6c5CCCC6)cc4)cc3)c1)CCCC2 [Example 75, N,N′-[(1,1′-biphenyl)-4,4′-di-(3-propanyl)]-bis-[5,6,7,8-tetrahydroquinolinium]dibromide] | 0.4 | 10 |
| Cc1cc[n+](CCOCCOCCOCC[n+]2ccc(C)c(C)c2)cc1C [Example 89, N,N′-{2,2′-[oxybis-(2,1-ethandiyloxy)]bis-ethyl}-bis-(3,4-dimethylpyridinium)dichloride] | 13 | 14 |
| c1cc(-c2ccc(CCC[n+]3ccc4c(c3)CCCC4)cc2)ccc1CCC[n+]1ccc2c(c1)CCCC2 [Example 76, N,N′-[(1,1′-biphenyl)-4,4′-di-(3-propanyl)]-bis-[5,6,7,8-tetrahydroisoquinolinium]dibromide] | 0 | 5.1 |
| Cc1cc[n+](CCCc2ccc(-c3ccc(CCC[n+]4ccc(C)c(C)c4)cc3)cc2)cc1C [Example 72, N,N′-[(1,1′-biphenyl)-4,4′-di-(3-propanyl)]-bis-(3,4-dimethylpyridinium)dibromide] | 0 | 5.5 |
| CCCCc1ccc[n+](CCCC#Cc2cccc(C#CCCC[n+]3cccc(CCCC)c3)c2)c1 [Example 57, 1,3-bis-[5-(3-n-butyl-pyridinium)-pent-1-ynyl]-benzene dibromide] | 3.5 | 8.7 |
| CCCCc1ccc[n+](CCCCCc2ccccc2CCCCC[n+]2cccc(CCCC)c2)c1 [Example 43, 1,2-bis-[5-(3-n-butyl-pyridinium)-pentyl]-benzene dibromide] | 0.8 | 5.5 |
| CCc1ccc[n+](CCCCc2ccc(CCCC[n+]3cccc(CC)c3)cc2)c1 [Example 14, N,N′-[1,4-phenylenedi-(4-butanyl)]-bis-(3-ethylpyridinium)dibromide] | 2 | 4 |
